The structures appear in SMILES notation. Where only a bound is given, the exact number is not on record here.

From patent publication US20240294511A1, “SOLID FORM OF INDOLE COMPOUND, PREPARATION METHOD THEREFOR AND USE THEREOF” (KEYTHERA (SUZHOU) BIO-PHARMACEUTICALS CO., LIMITED, priority 2021, published 2024) come the findings set out here.

A short description of one data set: Solid stability test. The class given is physicochemical. As to conditions: for Purity - Day 7: 7 days. Here is the method: (§1) The solid samples obtained in the examples were analyzed for crystalline form using a PANalytical EMPYREAN equipped with a PIXceI^1D detector. The instrument parameters are as follows: scanning range: 3° (2θ) to 40° (2θ); step size: 0.013° (2θ); tube voltage and current are 45 KV and 40 mA, respectively.
The HPLC measurements were performed using an Agilent HPLC 1260 series instrument.
Crystalline form II was stored separately at a sealed condition at 60° C. and at 40° C./75% RH for 7 days. The purity of the samples was determined by HPLC before and after storage, and the XRPD patterns were measured.

The nature of another data set: High temperature test. The format is physicochemical. As to conditions: 60° C. On the procedure: Crystalline form II of the compound of Formula (1) was placed at a high temperature of 60° C. for 30 days. Samples were taken at 0, 5, 10, and 30 days, respectively, to observe changes in sample characteristics, measure specific rotation with a polarimeter, test for drying loss, measure the total impurity content by HPLC, and measure the XRPD patterns of the samples.

The next data set can be described thus: Light exposure test. The class given is physicochemical. On the procedure:
Crystalline form II of the compound of Formula (1) was placed under conditions of light intensity not less than 1.2×10^6 Lux·hr, with near-ultraviolet energy not less than 200 w·hr/m^2, at 25° C., RH 25% for 30 days. Samples were taken at 0, 5, 10, and 30 days, respectively, to observe changes in sample characteristics, test for drying loss, measure the total impurity content by HPLC, and measure the XRPD patterns of the samples.

A short description of a further data set: Mechanical grinding test. The class given is physicochemical. As to conditions: 0.5 g ground in a mortar for about 5 minutes. On the procedure:
as §1
0.5 g of crystalline form II was placed in a mortar and ground for about 5 minutes, then the solid was collected for XRPD testing.

Another data set can be described thus: High humidity test. The format is physicochemical. On the procedure: Crystalline form II of the compound of Formula (1) was placed at 25° C. and 92.5% high humidity for 30 days. Samples were taken at 0, 5, 10, and 30 days, respectively, to observe changes in sample characteristics, test for drying loss, measure the total impurity content by HPLC, and measure the XRPD patterns of the samples.

Data set [1] in a line: Pharmacokinetic test in beagle dogs. As to conditions: dog, blood. The format is in vivo. On the procedure:
A clear solution of crystalline form II of the compound of Formula (1) was prepared in 10% DMSO, 60% PEG 400, and 30% water for injection and administered intravenously to beagle dogs. An aqueous suspension of crystalline form II of the compound of Formula (1) in 0.5% sodium carboxymethylcellulose (CMC·Na) was prepared and administered orally to beagle dogs to investigate its pharmacokinetic characteristics.

Data set [2] in a line: Pharmacokinetic test in SD rats. The class given is in vivo. As to conditions: rat, blood. On the procedure:
A clear solution of crystalline form II of the compound of Formula (1) was prepared in 10% DMSO, 60% PEG 400, and 30% water for injection and administered intravenously to SD rats. An aqueous suspension of crystalline form II of the compound of Formula (1) in 0.5% sodium carboxymethylcellulose (CMC·Na) was prepared and administered orally to SD rats to investigate its pharmacokinetic characteristics.

Data set [3] is described as follows: Crystalline form transformation test (heating). As to conditions: slowly heated to 200° C., then cooled to room temperature. The class given is physicochemical. On the procedure: as §1
Crystalline form IV was slowly heated to 200° C. and then cooled to room temperature. Samples before and after heating were collected for XRPD testing.

For the compound `O=C(NC1(C23CC(C(=O)O)(C2)C3)CC1)c1cccc2ccn(Cc3cc4ccccc4o3)c12` [Crystalline form II, 3-(1-(1-(benzofuran-2-ylmethyl)-1H-indole-7-carboxamido)cyclopropyl)bicyclo[1.1.1]pentane-1-carboxylic acid], the “Purity - Day 7” value in “Solid stability test” (HPLC, 40° C./75% RH) is given as 99.4 Area %; in the data set “Solid stability test” (HPLC, sealed condition at 60° C.) it was 99.6 Area %. The “Purity at the beginning” value in the data set “Solid stability test” (HPLC, before storage) stood at 99.4 Area %. Besides, the “crystalline form after storage (XRPD)” value in the data set “Solid stability test” (sealed at 60° C. and at 40° C./75% RH for 7 days) is on record as “remained unchanged”. Besides, the “stability under high-temperature conditions” value in “High temperature test” is “stable”. The “differences in appearance, moisture, content and crystalline form compared to day 0” value in the data set “High temperature test” (30 days) is reported as “no significant differences”; in “High humidity test” (25° C., 92.5% RH, 30 days), “no significant differences”. Moreover, the new impurities formed in the data set “High temperature test” (30 days, HPLC) is not above 0.05%; in “Light exposure test” (light exposure, 30 days, HPLC), not above 0.05%; in “High humidity test” (25° C., 92.5% RH, 30 days, HPLC), not above 0.05%. For the same compound, the “crystalline form (XRPD)” value in the data set “Light exposure test” (light exposure, 30 days) is listed as “did not change”. Besides, the “changes in moisture and content compared to day 0” value in the data set “Light exposure test” (light not less than 1.2×10^6 Lux·hr, near-UV not less than 200 w·hr/m^2, 25° C., RH 25%, 30 days) is “no significant changes”. The “stability under light exposure conditions” value in the data set “Light exposure test” (total illumination not less than 1.2×10^6 Lux·hr, near-UV not less than 200 w·hr/m^2) is listed as “stable”. For the same compound, in the data set “Mechanical grinding test”, the “crystalline form after grinding (XRPD)” value is on record as “remained unchanged”. In addition, the water absorption in the data set “High humidity test” (25° C., 92.5% RH, 30 days) is recorded as 0.03%. Also, the “stability under high humidity conditions” value in “High humidity test” (RH 92.5%) was “stable”.
With `O=C(NC1(C23CC(C(=O)O)(C2)C3)CC1)c1cccc2ccn(Cc3cc4ccccc4o3)c12` [compound of Formula (1), 3-(1-(1-(benzofuran-2-ylmethyl)-1H-indole-7-carboxamido)cyclopropyl)bicyclo[1.1.1]pentane-1-carboxylic acid], the clearance (as a rule, a measure of how efficiently the substance is removed, as volume per time) was determined as 6.64 mL/min/kg in data set [1] (single intravenous 5 mg/kg, read-out: clearance (CL)) and 3.59 mL/min/kg in data set [2] (single intravenous 15 mg/kg, read-out: clearance (CL)). In addition, the Vd in data set [1] (single intravenous 5 mg/kg, read-out: steady-state apparent volume of distribution (Vss)) is 1.5 L/kg; in data set [2] (single intravenous 15 mg/kg, read-out: steady-state apparent volume of distribution (Vss)), 1.18 L/kg. The AUC(0-t) in data set [1] (single intravenous 5 mg/kg, solution of crystalline form II in 10% DMSO, 60% PEG 400, 30% water, read-out: drug exposure (AUC0-t)) amounted to 12600 ng·h/mL; in data set [1] (single oral 45 mg/kg, suspension of crystalline form II in 0.5% CMC·Na, read-out: exposure (AUC0-t)), 79600 ng·h/mL; in data set [2] (single intravenous 15 mg/kg, solution of crystalline form II in 10% DMSO, 60% PEG 400, 30% water, read-out: drug exposure (AUC0-t)), 78800 ng·h/mL; in data set [2] (single oral 40 mg/kg, suspension of crystalline form II in 0.5% CMC·Na, read-out: exposure (AUC0-t)), 153000 ng·h/mL. The Cmax in data set [1] (single oral 45 mg/kg, suspension of crystalline form II in 0.5% CMC·Na, read-out: maximum blood drug concentration (Cmax)) amounted to 32900 ng/mL; in data set [2] (single oral 40 mg/kg, suspension of crystalline form II in 0.5% CMC·Na, read-out: maximum blood drug concentration (Cmax)), 27700 ng/mL.
`O=C(NC1(C23CC(C(=O)O)(C2)C3)CC1)c1cccc2ccn(Cc3cc4ccccc4o3)c12` [Crystalline form IV, 3-(1-(1-(benzofuran-2-ylmethyl)-1H-indole-7-carboxamido)cyclopropyl)bicyclo[1.1.1]pentane-1-carboxylic acid]: the “crystalline form after heating (XRPD)” value in data set [3] is “transformed into crystalline form II”.
